Laboratory results from ChEMBL document CHEMBL1944551, “An integrated computational workflow for efficient and quantitative modeling of renin inhibitors” (Bioorg Med Chem, 2012).

Assay: physchem
Conditions: octanol/buffer

| SMILES | logP |
| --- | --- |
| O=C([C@H]1CNCC(=O)N1c1ccc(OCCCOCc2ccccc2)cc1)N(Cc1cc(CNCC(F)F)ccc1Cl)C1CC1 | 5.34 |
| COCCc1ccc(Cl)c(CN(C(=O)[C@H]2CNCC(=O)N2c2ccc(OCCOc3c(Cl)cc(C)cc3Cl)cc2)C2CC2)c1 | 6.05 |
| CNCCc1ccc(Cl)c(CN(C(=O)[C@H]2CNCC(=O)N2c2ccc(CCCOc3cccc(Cl)c3)cc2)C2CC2)c1 | 5.81 |
| COc1c(CN(C(=O)[C@H]2CNCC(=O)N2c2ccc(COC(=O)c3ccccc3)cc2)C2CC2)ccnc1C | 3.12 |
| Cc1cccc(CN(C(=O)[C@H]2CNCC(=O)N2c2ccc(CCCOc3cccc(Cl)c3)cc2)C2CC2)c1C | 5.91 |
| COC(=O)NCc1ccc(Cl)c(CN(C(=O)[C@H]2CNCC(=O)N2c2ccc(OCCOc3c(Cl)cc(C)cc3Cl)nc2)C2CC2)c1 | 4.75 |
| CNC(=O)OCc1ccc(Cl)c(CN(C(=O)[C@H]2CNCC(=O)N2c2ccc(OCCOc3c(Cl)cc(C)cc3Cl)nc2)C2CC2)c1 | 4.75 |
| O=C(NCc1ccccc1)[C@H]1CNCC(=O)N1c1ccc(CCCOc2cccc(Cl)c2)cc1 | 4.46 |
| O=C(CC(F)(F)F)NCc1ccc(Cl)c(CN(C(=O)[C@H]2CNCC(=O)N2c2ccc(COC(=O)c3ccccc3)cc2)C2CC2)c1 | 4.92 |
| CCC(=O)NCc1ccc(Cl)c(CN(C(=O)[C@H]2CNCC(=O)N2c2ccc(CCCOc3cccc(Cl)c3)cc2)C2CC2)c1 | 5.84 |
| COCCCc1cc(CN(C(=O)[C@H]2CNCC(=O)N2c2ccc(CCCOc3cccc(Cl)c3)cc2)C2CC2)c(Cl)c[n+]1[O-] | 5.51 |
| O=C([C@H]1CNCC(=O)N1c1ccc(CCCOc2c(F)ccc(F)c2F)cc1)N(Cc1cc(CNCC(F)F)ccc1Cl)C1CC1 | 5.96 |
| Cc1cc(Cl)c(OCCOc2ccc(N3C(=O)CNC[C@@H]3C(=O)N(C)CCc3ccccc3)cc2)c(Cl)c1 | 4.68 |
| CNC(=O)CCc1ccc(Cl)c(CN(C(=O)[C@H]2CNCC(=O)N2c2ccc(CCCOc3c(F)ccc(F)c3F)cc2)C2CC2)c1 | 5.24 |
| COCCc1ccc(Cl)c(CN(C(=O)[C@H]2CNCC(=O)N2c2ccc(CCCOc3cccc(Cl)c3)cc2)C2CC2)c1 | 6.12 |
| Cc1cc(Cl)c(OCCOc2ccc(N3C(=O)CNC[C@@H]3C(=O)NCc3ccccc3Cl)cn2)c(Cl)c1 | 4.15 |
| CC(=O)NCCc1ccc(Cl)c(CN(C(=O)[C@H]2CNCC(=O)N2c2ccc(CCCOc3c(F)ccc(F)c3F)cc2)C2CC2)c1 | 5.28 |

Other lines, results leading:

| logP | SMILES |
| --- | --- |
| 4.99 | COc1ccccc1COCCCOc1ccc(N2C(=O)CNC[C@@H]2C(=O)N(Cc2cc(CNCCF)ccc2Cl)C2CC2)cc1 |
| 5.62 | COc1ccccc1COCCCOc1ccc(N2C(=O)CNC[C@@H]2C(=O)N(Cc2cc(CCNC3CC3)ccc2Cl)C2CC2)cc1 |
| 5.29 | O=C(CC(F)(F)F)NCc1ccc(Cl)c(CN(C(=O)[C@H]2CNCC(=O)N2c2ccc(OCCCOCc3ccccc3)cc2)C2CC2)c1 |
| 3.6 | COc1ccccc1COCCCOc1ncc(N2C(=O)CNC[C@@H]2C(=O)N(Cc2cc(CCNC(=O)COC(C)(C)C)ccc2Cl)C2CC2)cn1 |
| 4.85 | COC(=O)NCc1ccc(Cl)c(CN(C(=O)[C@H]2CNCC(=O)N2c2ccc(OCCCOCc3ccccc3)cc2)C2CC2)c1 |
| 6.18 | O=C(CC(F)(F)F)NCCc1ccc(Cl)c(CN(C(=O)[C@H]2CNCC(=O)N2c2ccc(CCCOc3cccc(Cl)c3)cc2)C2CC2)c1 |
| 5.67 | COC(=O)NCCc1ccc(Cl)c(CN(C(=O)[C@H]2CNCC(=O)N2c2ccc(OCCOc3c(Cl)cc(C)cc3Cl)cc2)C2CC2)c1 |
| 5.39 | COCCCc1ccc(Cl)c(CN(C(=O)[C@H]2CNCC(=O)N2c2ccc(COC(=O)c3ccccc3)cc2)C2CC2)c1 |
| 4.72 | COc1ccccc1COCCCOc1ccc(N2C(=O)CNC[C@@H]2C(=O)N(Cc2cccc(OC)c2C)C2CC2)cc1 |
| 4.62 | CNC(=O)CCc1ccc(Cl)c(CN(C(=O)[C@H]2CNCC(=O)N2c2ccc(OCCCOCc3ccccc3)cc2)C2CC2)c1 |
| 3.05 | COc1ccccc1COCCCOc1ncc(N2C(=O)CNC[C@@H]2C(=O)N(Cc2cccc(C)c2C)C2CC2)cn1 |
| 2.95 | CNCCc1ccc(Cl)c(CN(C(=O)[C@H]2CNCC(=O)N2c2cnc(OCCCOCc3ccccc3OC)nc2)C2CC2)c1 |
